Laboratory results taken from patent US20250368617A1, “NOVEL RAS INHIBITORS” (KHR BIOTEC GMBH, priority 2022, published 2025).

Legend:
[1] = target: T1, KRAS G12V (Homo sapiens, UniProt P01116, G12V); assay: NanoBit assay for RAS activation (LgBiT-KRAS G12V / SmBiT-CRAF RAS binding domain); assay type: cell-based; conditions: KRAS G12V with CRAF RBD (1-149); 2 h with inhibitor in serum free DMEM; DMSO set as 1
T1 construct: K, N and HRAS G12V (full length) was cloned with Xho I and BgI II to LgBit; expressed in transfected cells
T1 sequence (P01116 1-186 isoform P01116-2 G12V limits assumed): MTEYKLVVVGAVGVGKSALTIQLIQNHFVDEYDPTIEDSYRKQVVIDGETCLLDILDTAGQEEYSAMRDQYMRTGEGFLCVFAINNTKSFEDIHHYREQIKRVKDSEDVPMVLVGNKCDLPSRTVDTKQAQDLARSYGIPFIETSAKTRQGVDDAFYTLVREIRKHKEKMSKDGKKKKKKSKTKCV
Experimental: (§1) FIGS. 1a) and 1b): NanoBit assay for RAS activation (KRAS G12V, NRAS G12V, HRAS G12V) N-terminal LgBiT and C-terminal SmBiT construct was purchased from Promega and K, N and HRAS G12V (full length) was cloned with Xho I and BgI II to LgBit and CRAF RAS binding domain (1-149) was cloned with EcoRI and BgI II to SmBit. For transfections, 1 μg or 2 μg of (12 well/6 well) plasmids were transfected into cells with 0.5 mM of PEI reagent in 100 μl or 200 μl PBS. One day after transfection, cells were harvested and seeded into 96 well white plates, half area (Greiner). After an additional day the medium was changed to serum free DMEM and the cells were incubated for 2 h with inhibitors. NanoGlo assay was performed according to the manufacturer's instructions. The luminescence was measured using Tecan infinite (Tecan). DMSO-treated cells were set as 1. The results shown are mean mean±SEM from at least 3 independent experiments.

[2] = target: T2, NRAS G12V (Homo sapiens, UniProt P01111, G12V); assay: NanoBit assay for RAS activation (LgBiT-NRAS G12V / SmBiT-CRAF RAS binding domain); assay type: cell-based; conditions: NRAS G12V with CRAF RBD (1-149); 2 h with inhibitor in serum free DMEM; DMSO set as 1
T2 construct: K, N and HRAS G12V (full length) was cloned with Xho I and BgI II to LgBit; expressed in transfected cells
T2 sequence (P01111 1-186 G12V limits assumed): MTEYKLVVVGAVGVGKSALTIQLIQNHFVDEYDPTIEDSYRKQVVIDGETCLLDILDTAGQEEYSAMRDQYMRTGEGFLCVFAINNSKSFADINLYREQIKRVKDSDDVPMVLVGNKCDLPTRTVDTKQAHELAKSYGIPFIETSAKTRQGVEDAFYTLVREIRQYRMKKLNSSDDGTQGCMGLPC
Experimental: as §1

[3] = target: T3, HRAS G12V (Homo sapiens, UniProt P01112, G12V); assay: NanoBit assay for RAS activation (LgBiT-HRAS G12V / SmBiT-CRAF RAS binding domain); assay type: cell-based; conditions: HRAS G12V with CRAF RBD (1-149); 2 h with inhibitor in serum free DMEM; DMSO set as 1
T3 construct: K, N and HRAS G12V (full length) was cloned with Xho I and BgI II to LgBit; expressed in transfected cells
T3 sequence (P01112 1-186 G12V limits assumed): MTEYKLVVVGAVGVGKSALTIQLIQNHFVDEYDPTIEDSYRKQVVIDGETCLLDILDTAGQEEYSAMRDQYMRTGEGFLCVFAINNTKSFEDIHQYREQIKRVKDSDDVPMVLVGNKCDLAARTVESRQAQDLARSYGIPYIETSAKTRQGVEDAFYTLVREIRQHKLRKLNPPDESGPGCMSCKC
Experimental: as §1

[4] = test system: ASPC1 cells; assay: Soft agar colony formation assay with MTT staining; assay type: cell-based; conditions: Homo sapiens, growth in soft agar, absorbance at 570 nm
Experimental: (§2) Metabolic activity was quantified using Cell Proliferation Kit I (Roche, Basel, Switzerland). Cells were seeded in 96-well cell culture plates, using 5000 cells per well for NCI-H358 cells. After treatment, 10 μl of MTT solution was added and incubated for 2 h in CO2 incubator. Then 100 μl of solubilization buffer was added to each well and incubated overnight in CO2 incubator. Cell viability, assessed by the amount of metabolized MTT, was quantified by measuring absorbance at 570 nm.
(§3) MTT assay for the growth of different tumor cell lines with RAS mutations in soft agar with GSK2126458. Shown are data from three independent experiments.
(§4) NCI-H358, H358, H2122, ASPC-1, HCT-116, T24 and HT1080 cells were used for the soft […] agar colony formation assay. After the treatment with GSK2126458, the colonies were stained with MTT and the value was quantified by measuring absorbance at 570 nm after solubilization. The results represent mean±SD from 3 independent experiments.

[5] = test system: HCT-116 cells; assay: Soft agar colony formation assay with MTT staining; assay type: cell-based; conditions: Homo sapiens, growth in soft agar, absorbance at 570 nm
Experimental: as §2, §3, §4

[6] = test system: HT1080 cells; assay: Soft agar colony formation assay with MTT staining; assay type: cell-based; conditions: Homo sapiens, HT-1080, growth in soft agar, absorbance at 570 nm
Experimental: as §2, §3, §4

[7] = test system: NCI-H2122 cells; assay: Soft agar colony formation assay with MTT staining; assay type: cell-based; conditions: Homo sapiens, growth in soft agar, absorbance at 570 nm
Experimental: as §2, §3, §4

[8] = test system: NCI-H358 cells; assay: Soft agar colony formation assay with MTT staining; assay type: cell-based; conditions: Homo sapiens, growth in soft agar, absorbance at 570 nm
Experimental: as §2, §3, §4

[9] = test system: T24 cells; assay: Soft agar colony formation assay with MTT staining; assay type: cell-based; conditions: Homo sapiens, T-24, growth in soft agar, absorbance at 570 nm
Experimental: as §2, §3, §4

[10] = test system: LgBit-KRAS mutants (G12V, G12C, G12D, G12C/Y96D, G13C, G13D, G13S, Q61K and Q61R); assay: NanoBit assay for inhibition of RAS activation, KRAS mutants in HeLa cells; assay type: cell-based; conditions: LgBit-KRAS mutants and SmBit-CRAF-RBD, 2 h in serum-free DMEM
Experimental: FIG. 3: NanoBit assay for inhibition of RAS activation (G12V, G12C, G12D, G12C/Y96D, G13C, G13D, G13S, Q61K and Q61R)
NanoBiT assay for the RAS GTP-loading was performed in HeLa cells transfected with LgBit-KRAS mutants and SmBit-CRAF-RBD. Cells were treated with GSK2126458 according to the invention for 2 h in serum-free DMEM. After incubation, the substrate for NanoLuc was added, and the luminescence was measured in a multiplate reader. Data were normalized to cells transfected with the indicated mutant and exposed to DMSO for 2 h. DMSO-treated cells were set as 1. The bars represent mean±SEM from 3 independent experiments.

[11] = test system: KRAS dependent cells; assay: MTT assay for cell viability in 96 well cell culture plate (FIG. 4); assay type: cell-based; conditions: 48 h treatment; incl. G12C/Y96D mutation; DMSO set as 1
Experimental: as §2
FIG. 4: MTT assay for cell viability in 96 well cell culture plate Cells were treated with GSK2126458 for 48 h and cell viability was evaluated by MTT assay. […]. DMSO-treated cells were set as 1. The results shown are mean±SEM from 3 independent experiments.

[12] = test system: sNF96.2; assay: RASOpathie-Model; MTT assay for cell viability in 96 well cell culture plate (FIG. 5); assay type: cell-based; conditions: 48 h treatment
Experimental: as §2
FIG. 5: RASOpathie-Model of GSK2126458; MTT assay for cell viability in 96 well cell culture plate
Cells were treated with GSK2126458 for 48 h and cell viability was evaluated by MTT assay. DMSO-treated cells were set as 1. The results shown are mean±SEM from 3 independent experiments.

[13] = test system: p110a, p110β, p110γ, p110σ, and the mTOR1 and mTOR2 complexes and DNA-PK; conditions: ATP-competitive, reversible; cited from earlier work

With `COc1ncc(-c2ccc3nccc(-c4ccnnc4)c3c2)cc1NS(=O)(=O)c1ccc(F)cc1F` [GSK2126458, 2,4-Difluoro-N-[2-methoxy-5-[4-(4-pyridazinyl)-6-quinolinyl]-3-pyridinyl]benzenesulfonamide] the “inhibition of K-RAS activation (NanoBit luminescence)” value [1] was “inhibits”, the “inhibition of N-RAS activation (NanoBit luminescence)” value [2] was “inhibits” and the “inhibition of H-RAS activation (NanoBit luminescence)” value [3] was “inhibits”. For the same compound, the IC50 [4] was 10.8 µM, the IC50 [5] was 47.4 µM and the IC50 [6] was 86.9 µM. The IC50 [7] was 4.51 µM, the IC50 [8] was 11.5 µM and the IC50 [9] was 228 µM. For the same compound, the “inhibition of RAS activation (RAS GTP-loading, NanoBiT)” value [10] was “inhibits different RAS-isoforms”, the “cell viability (MTT)” value [11] was “inhibits KRAS dependent cells irrespective of the presence of mutation” and the IC50 [12] was 3.8 µM. The “activity against PI3K isoforms, mTOR complexes and DNA-PK” value [13] was “subnanomolar activity”.
